# Measured values published in the NIST ThermoML archive (doi:10.1021/je8001688).
# ± gives the expanded uncertainty stated by the source.
# Settings: 298.15 K; 101.33 kPa; Liquid; Vibrating tube method
row,SMILES,mass density [kg/m3]
1,CC(C)O [propan-2-ol],781.4 ± 0.5
2,CO [methanol],787 ± 0.5

# Other lines, results leading:
row,mass density [kg/m3],SMILES
1,1382.4 ± 0.6,"OCC(F)(F)F [2,2,2-trifluoroethanol]"
2,774 ± 0.5,C1CCCCC1 [cyclohexane]
3,680 ± 0.5,CCCCCCC [heptane]
